# Results taken from patent US20250304892A1, “APPARATUS, SYSTEM, AND METHOD FOR FORMING A PERTURBABLE BONE MARROW MODEL WITHIN A THREE-DIMENSIONAL MICROPHYSIOLOGICAL SYSTEM” (The Trustees of the University of Pennsylvania, priority 2022, published 2025).
# Columns and labels:
# Assay type in all cases: cell-based, human
# mobilized neutrophils = assay: Boyden chamber migration assay: chemotaxis of mobilized neutrophils in a gradient of IL-8; conditions: over a period of an hour
# Method: For further investigation, a Boyden chamber migration assay was conducted to measure chemotaxis of mobilized neutrophils in a gradient of IL-8 as a representative endpoint of their functional capacity. […] It was noted that the transmigrated cells in the lower chamber clumped together to form multicellular aggregates, reminiscent of neutrophil swarming in vivo that plays an important functional role in antimicrobial activities of neutrophils.
# [1] = tested on: micro-engineered bone marrow (MEBM) model; assay: Mobilization of blood cells from the MEBM model on vascular perfusion with IL-8 or AMD3100
# Excerpt: When hormones, cytokines, and other soluble signals produced by peripheral tissues reach the bone marrow, they can induce mature blood cells in the hematopoietic niche to transmigrate across the sinusoidal endothelium and enter the bloodstream. This regulated release of blood cells into circulation is termed mobilization, which represents a critical step in immunity and continuous cellular replenishment required for homeostasis of the hematopoietic system. Having validated the transcriptomic signatures of mature hematopoietic cells in the MEBM model and their capacity for physiologically relevant cell-cell signaling, the MEBM model was evaluated to determine whether it could reconstitute the complex process of mobilization in the integrated context of the vascularized hematopoietic niche. The study was specifically focused on investigating the ability of mature neutrophils differentiated from HSCs in the MEBM model to replicate rapid release of their in vivo counterparts from the bone marrow reserve during immune responses to inflammatory insults. To simulate this situation, the vasculature of the micro-engineered niche was perfused with culture media containing physiologically relevant concentrations of interleukin-8 (IL-8) during infection (5,000 μg/ml), a systemic inflammatory cytokine known to stimulate neutrophil release.
# In control experiments without IL-8, the vast majority of mature neutrophils identified by their expression of CD66b were retained in the perivascular space. […] Intravascular translocation of these cells occurred rapidly, within one hour of treatment, consistent with the time scale over which neutrophils are mobilized from the native marrow in an inflammatory setting.
# To capture the process of mobilization under the dynamic conditions of continuous vascular perfusion, a time-lapse imaging of neutrophils in the micro-engineered niche was performed at physiological flow rates (10 μl/min). In the IL-8-treated replicates, neutrophils were distributed in the perivascular region initially, but upon cytokine stimulation, a large fraction of these cells entered the neighboring blood vessels in less than 20 minutes. The intravasated cells were then quickly cleared from the observation area in the direction of flow. The cellular content of effluent collected from these devices was composed primarily of non-adherent cells characterized by multilobular nuclei and robust expression of CD66b, confirming the release of terminally differentiated mature neutrophils. During the same time period only a few neutrophils were mobilized in the control group.
# The MEBM model was also responsive to AMD3100 (Plerixafor), a CXCR4 antagonist clinically used for mobilizing HSCs and other hematopoietic cells from the bone marrow for autologous transplantation.
# Statistically analyses described above were performed as follows. Mobilization of neutrophils in response to IL-8 and AMD3100 was assessed by ordinary one-way ANOVA, with Dunnett correction employed for multiple comparisons. Marker expression (CD15 and CD66b) as compared between AMD3100- and IL-8-mobilized groups was tested by unpaired t-test. Cell populations following irradiation were compared using 2-way ANOVA with multiple comparisons testing adjusted by Dunnett correction. Mobilization following infection was compared between infected and non-infected groups by unpaired t-test. Quantities of neutrophils at inflow and outflow position were compared using Welch's t-test to account for unequal variances in the data. Comparisons between multiplexed Luminex cytokine assays were performed using multiple t-tests, corrected by the Holm-Sidak method.
# [2] = tested on: micro-engineered bone marrow (MEBM) model; assay: Stimulation of erythropoiesis in the MEBM model with erythropoietin; conditions: Erythropoiesis-Specific Medium (EPO 1 ng/ml)
# Method: Having confirmed the vascularization and HSC colonization of the micro-engineered niche, the potential to deploy the MEBM model to reconstitute multilineage hematopoiesis was investigated. Considering that hematopoiesis in vivo relies on extrinsic cues to control the fate of HSCs, the hematopoietic investigation was conducted by the addition of soluble factors known to drive lineage differentiation. First, the MEBM model was treated with erythropoietin (EPO) (see “Erythropoiesis-Specific Medium” of Table 1) to stimulate erythropoiesis. […] Following this phenotypic organization, the MEBM model produced a substantial number of round, erythroid cells that were distinguishable by their red color and expression of transferrin receptor (i.e., CD71) and glycophorin A. The micro-engineered niche also supported the differentiation of HSCs into myeloid cells. Stimulation of the MEBM model with myelopoietic media (see Table 1) for 21 days produced a marrow construct densely packed with cells of myeloid lineages, most of which were situated proximate the vasculature. A significant number of the cells were terminally differentiated mature neutrophils as identified by their multisegmented nuclei, intracellular secretory granules, and surface marker expression (CD15+/CD66b+).
# [3] = image cytometry of CD15 and CD66b staining, cells released by AMD3100
compound,measurement,setting,value
IL-8: a systemic inflammatory cytokine known to stimulate neutrophil release,cells that moved across the membrane,mobilized neutrophils,~80%
same,mature neutrophils in the population of released cells,"[1]; IL-8-induced mobilization, image cytometry",76%
same,egress of CD66b+ cells from the stromal compartment into the vascular lumen,"[1]; IL-8 infused through the vasculature (5,000 μg/ml), compared with control without IL-8",substantial egress of CD66b+ cells
same,time until a large fraction of neutrophils entered the neighboring blood vessels,"[1]; time-lapse imaging, continuous vascular perfusion at 10 μl/min, upon cytokine stimulation",less than 20 minutes
EPO: soluble factor added to stimulate erythropoiesis,effect of EPO addition on the micro-engineered niche,[2],formation of multicellular complexes
"c1cc(CN2CCCNCCNCCCNCC2)ccc1CN1CCCNCCNCCCNCC1 [AMD3100, Plerixafor, reference compound]",rate of mobilization compared with the IL-8-treated model,[1]; AMD3100 25 μg/ml,lower than that in the IL-8-treated model
same,neutrophils among the released cells of myeloid lineage,[1]; [3],56%
same,released cells of myeloid lineage,[1]; [3],approximately 65%
same,increase in the rate at which cells were released from the device,"[1]; perfused with clinical dose 25 μg/ml, in comparison to untreated controls",more than fivefold
